Assay results as given in article PMC8915624 (Antiviral Research, 2022).
pIC50: −log10 of the molar value. Like-named read-outs stand apart in the source and are kept apart here.

Tests used:
SARS-CoV-2 NP protein = assay type: cell-based
HCoV-OC43 [1] = assay type: cell-based; settings: Vero-E6/OC43; MOI 0.1, 72 hpi, real-time RT-PCR
Vero-E6 cells = experiment: Cell viability assay; assay type: cell-based, African green monkey; settings: MTT, 72 h
SARS-CoV-2 [2] = assay type: cell-based; settings: Vero-E6/SARS-CoV-2; MOI 0.1, 72 hpi, real-time RT-PCR
HCoV-OC43 [3] = assay type: cell-based; settings: for pIC50: MRC-5/OC43, MOI 0.1, 72 hpi, viral genome copies by real-time RT-PCR; for relative viral genome copy number in cell lysates and supernatants: 20 μM
SARS-CoV-2 [4] = assay type: cell-based
MRC-5 cells = experiment: Cell viability assay; assay type: cell-based, Human; settings: for CC50: MRC-5 cells, MTT, 72 h
HCoV-OC43 [5] = assay type: cell-based; settings: MRC-5, 72 hpi; 20 μM
HCoV-OC43 NP = assay type: cell-based; settings: MRC-5, MOI 1; 20 μM

| Compound | reduction of SARS-CoV-2 NP protein expression (SARS-CoV-2 NP protein) | pIC50 (HCoV-OC43 [1]) | CC50 (Vero-E6 cells) | pIC50 (SARS-CoV-2 [2]) | intra- and extra-cellular viral genome copy numbers (HCoV-OC43 [3]; MRC-5, MOI 0.1, Cl-A 100 μM, BB-Cl 2.5 μM) | pIC50 (HCoV-OC43 [3]) | reduction in SARS-CoV-2 yield (plaque assay) (SARS-CoV-2 [4]) | CC50 (MRC-5 cells) | reduction of the viral titer (plaque assay) (HCoV-OC43 [5]) | OC43 NP protein expression levels (Western blot) (HCoV-OC43 NP) | inhibition of HCoV-OC43 replication rate (maximum within the range of concentrations tested) (HCoV-OC43 [3]; MRC-5, MOI 0.1, 72 hpi) | relative viral genome copy number in cell lysates and supernatants (HCoV-OC43 [3]; MRC-5, MOI 0.1) | viral replication (viral genome production) (HCoV-OC43 [3]; MRC-5, 20 μM) | cell viability (MRC-5 cells; MRC-5, 20 μM) |
| --- | --- | --- | --- | --- | --- | --- | --- | --- | --- | --- | --- | --- | --- | --- |
| NC(=O)[C@H](CCCN=C(N)CCl)NC(=O)c1ccccc1 [Cl-amidine] | ~50% | 4.36 | > 1000 µM | 4.02 | drastically reduced | 4.46 | 1 log | 949 µM |  |  |  |  |  |  |
| AFM30a |  |  |  |  |  | < 4.70 |  | 321 µM | barely detectable | slight decrease | ≤ 40% | much less pronounced reduction |  |  |
| GSK199 |  |  |  |  |  | 6.22 |  | 133 µM | ~2 log | dramatic downregulation |  | drastically reduced | complete blockade of viral replication | viable |
